Source: patent publication US9074014B2 (Ipsen Pharma S.A.S., priority 2008, dated 2015)
Where a SMILES comes first, the peptide text is derived from it. Where no end group is shown, it is not given here. [ ]: non-standard residue; d: D form. Ac6c = NC1(C(=O)O)CCCCC1; Nle = CCCC[C@H](N)C(=O)O; Ac5c = NC1(C(=O)O)CCCC1; Aib = CC(C)(N)C(=O)O

How the values were obtained:
[1] = In vivo insulin secretion in normal rats; parameters: species or system Sprague Dawley rats; conditions: fasted male rats, iv compound with glucose 1 g/kg, samples to 20 minutes
Description: D. Determination of In Vivo Insulin Secretion in Normal Rats
Male Sprague Dawley rats with a body weight of approximately 275-300 g were used as experimental subjects. The day prior to the treatment, right atrial cannulae were implanted via the jugular vein under chlorohydrate. Each cannula was filled with 100 u/ml heparin saline and tied. The rats were fasted for approximately 18 hours prior to dosing with the compound or the vehicle (saline/0.25% BSA). The day of the experiment, aliquots of compound were thawed, brought to room temperature and vortexed thoroughly. A careful check was made for any sign of compound coming out of solution. 10 minutes prior to compound/glucose injection, a 500 μl blood sample was withdrawn and replaced with an equal volume of heparinized saline (10 u/ml). At time 0, a 500 μl blood sample was withdrawn through the cannula. Next, either the vehicle or the appropriate dose of the compound was injected into the cannula and pushed in with the glucose (1 g/kg) or vehicle solution. Finally, 500 μl of volume of heparinized saline (10 u/ml) was used to push in the remaining glucose through the cannula. Additional 500 μl blood samples were withdrawn at 2.5, 5, 10, and 20-minute post-glucose dosing; each immediately followed by a bolus, iv injection of 500 μl heparinized saline (10 u/ml) through the cannula. The plasma was collected from the blood samples by centrifugation, and stored at −20° C. until assay for insulin content. Numerical values of the total insulin secretion, which show the in vivo effects of the compounds of Examples 105, 106, 118, and 119, are summarized in Table 3.

[2] = Human plasma half-life assay; assay type: in vitro ADME; conditions: human plasma, 37° C., LC-MS; read-out: Human Plasma T½ (converted)
[3] = Rat plasma half-life assay; assay type: in vitro ADME; conditions: rat plasma, 37° C., LC-MS; read-out: Rat Plasma T½ (converted)
[4] = target: T1, human recombinant GIP receptor (Homo sapiens, UniProt P48546); assay: In vitro hGIP receptor binding assay ([125I]GIP displacement, CHO-K1 membranes)
T1 construct: expressed in transfected cells; host or cells: CHO-K1 clonal cells (membranes)
T1 sequence (P48546 22-466): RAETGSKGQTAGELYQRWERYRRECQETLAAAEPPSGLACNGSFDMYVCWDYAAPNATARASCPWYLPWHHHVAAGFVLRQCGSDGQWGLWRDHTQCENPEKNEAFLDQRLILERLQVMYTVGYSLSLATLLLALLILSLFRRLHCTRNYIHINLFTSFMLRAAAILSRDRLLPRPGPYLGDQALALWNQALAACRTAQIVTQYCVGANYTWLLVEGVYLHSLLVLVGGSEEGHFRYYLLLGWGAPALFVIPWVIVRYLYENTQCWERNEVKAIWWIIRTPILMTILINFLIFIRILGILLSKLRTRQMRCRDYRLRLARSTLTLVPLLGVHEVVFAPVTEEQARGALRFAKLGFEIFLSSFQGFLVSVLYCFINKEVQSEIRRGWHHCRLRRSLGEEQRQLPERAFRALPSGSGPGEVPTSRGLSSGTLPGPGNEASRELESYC
Description: A. In Vitro hGIP Receptor Binding Assay

| Compound | AUC (total insulin secretion) [1] | half-life at 0.1 mg/ml [2] [h] | half-life at 0.1 mg/ml [3] [h] | Ki [4] [nM] |
| --- | --- | --- | --- | --- |
| CC[C@H](C)[C@H](NC(=O)[C@H](CCCCN)NC(=O)[C@H](CC(=O)O)NC(=O)[C@H](CCSC)NC(=O)[C@H](C)NC(=O)[C@@H](NC(=O)C1(NC(=O)[C@H](Cc2ccc(O)cc2)NC(=O)[C@H](CC(=O)O)NC(=O)[C@H](CO)NC(=O)[C@@H](NC(=O)[C@H](Cc2ccccc2)NC(=O)[C@@H](NC(=O)CNC(=O)[C@H](CCC(=O)O)NC(=O)[C@@H](C)NC(=O)[C@@H](N)Cc2ccc(O)cc2)[C@@H](C)O)[C@@H](C)CC)CCCC1)[C@@H](C)CC)C(=O)N[C@@H](Cc1c[nH]cn1)C(=O)N[C@@H](CCC(N)=O)C(=O)N[C@@H](CCC(N)=O)C(=O)N[C@@H](CC(=O)O)C(=O)N[C@@H](Cc1ccccc1)C(=O)N[C@H](C(=O)N[C@@H](CC(N)=O)C(=O)N[C@@H](Cc1c[nH]c2ccccc12)C(=O)N[C@@H](CC(C)C)C(=O)N[C@@H](CC(C)C)C(=O)N[C@@H](C)C(=O)N[C@@H](CCC(N)=O)C(=O)N[C@@H](CCCCN)C(=O)NCC(=O)N[C@@H](CCCCN)C(=O)N[C@@H](CCCCN)C(=O)N[C@@H](CC(N)=O)C(=O)N[C@@H](CC(=O)O)C(=O)N[C@@H](Cc1c[nH]c2ccccc12)C(=O)N[C@@H](CCCCN)C(=O)N[C@@H](Cc1c[nH]cn1)C(=O)N[C@@H](CC(N)=O)C(=O)N[C@H](C(=O)N[C@H](C(=O)N[C@@H](CCC(N)=O)C(=O)N[C@@H](Cc1c[nH]cn1)C(=O)O)[C@@H](C)O)[C@@H](C)CC)C(C)C [Example 105, (D-Ala^2, A5c^11, His^43)hGIP(1-43)-OH] | 114.70 | 19.1 | 6.9 | – |
| CCCC[C@H](NC(=O)C(C)(C)NC(=O)[C@@H](NC(=O)[C@H](CO)NC(=O)[C@H](Cc1ccc(O)cc1)NC(=O)[C@H](CC(=O)O)NC(=O)[C@H](CO)NC(=O)[C@@H](NC(=O)[C@H](Cc1ccccc1)NC(=O)[C@@H](NC(=O)CNC(=O)[C@@H]1CCCN1C(=O)C(C)(C)NC(=O)[C@@H](N)Cc1ccc(O)cc1)[C@@H](C)O)[C@@H](C)CC)[C@@H](C)CC)C(=O)N[C@@H](CC(=O)O)C(=O)N[C@@H](CCCCN)C(=O)N[C@H](C(=O)N[C@@H](Cc1c[nH]cn1)C(=O)N[C@@H](CCC(N)=O)C(=O)N[C@@H](CCC(N)=O)C(=O)N[C@@H](CC(=O)O)C(=O)N[C@@H](Cc1ccccc1)C(=O)N[C@H](C(=O)N[C@@H](CC(N)=O)C(=O)N[C@@H](Cc1c[nH]c2ccccc12)C(=O)N[C@@H](CC(C)C)C(=O)N[C@@H](CC(C)C)C(=O)N[C@@H](C)C(=O)N[C@@H](CCC(N)=O)C(=O)N[C@@H](CCCCN)C(N)=O)C(C)C)[C@@H](C)CC [Example 108, (Aib^2, 13, Pro^3, Nle^14)hGIP(1-30)-NH2] (H-Y[Aib]PGTFISDYSI[Aib][Nle]DKIHQQDFVNWLLAQK-NH2; N-terminus assumed) | – | 46.2 | 45.6 | 0.07 |
| CCCC[C@H](NC(=O)[C@H](C)NC(=O)[C@@H](NC(=O)C1(NC(=O)[C@H](Cc2ccc(O)cc2)NC(=O)[C@H](CC(=O)O)NC(=O)[C@H](CO)NC(=O)[C@@H](NC(=O)[C@H](Cc2ccccc2)NC(=O)[C@@H](NC(=O)CNC(=O)[C@H](CCC(=O)O)NC(=O)CNC(=O)[C@@H](N)Cc2ccc(O)cc2)[C@@H](C)O)[C@@H](C)CC)CCCC1)[C@@H](C)CC)C(=O)N[C@@H](CC(=O)O)C(=O)N[C@@H](CCCCN)C(=O)N[C@H](C(=O)N[C@@H](Cc1c[nH]cn1)C(=O)N[C@@H](CCC(N)=O)C(=O)N[C@@H](CCC(N)=O)C(=O)N[C@@H](CC(=O)O)C(=O)N[C@@H](Cc1ccccc1)C(=O)N[C@H](C(=O)N[C@@H](CC(N)=O)C(=O)N[C@@H](Cc1c[nH]c2ccccc12)C(=O)N[C@@H](CC(C)C)C(=O)N[C@@H](CC(C)C)C(=O)N[C@@H](C)C(=O)N[C@@H](CCC(N)=O)C(=O)N[C@@H](CCCCN)C(=O)NCC(=O)N[C@@H](CCCCN)C(=O)N[C@@H](CCCCN)C(=O)N[C@@H](CC(N)=O)C(=O)N[C@@H](CC(=O)O)C(=O)N[C@@H](Cc1c[nH]c2ccccc12)C(=O)N[C@@H](CCCCN)C(=O)N[C@@H](Cc1c[nH]cn1)C(=O)N[C@@H](CC(N)=O)C(=O)N[C@H](C(=O)N[C@H](C(=O)N[C@@H](CCC(N)=O)C(=O)N[C@@H](Cc1c[nH]cn1)C(=O)O)[C@@H](C)O)[C@@H](C)CC)C(C)C)[C@@H](C)CC [Example 118, (Gly^2, A5c^11, Nle^14, His^43)hGIP(1-43)-OH] | 88.22 | > 42 | 11.2 | 0.87 |
| CCCC[C@H](NC(=O)[C@H](C)NC(=O)[C@@H](NC(=O)C1(NC(=O)[C@H](Cc2ccc(O)cc2)NC(=O)[C@H](CC(=O)O)NC(=O)[C@H](CO)NC(=O)[C@@H](NC(=O)[C@H](Cc2ccccc2)NC(=O)[C@@H](NC(=O)CNC(=O)[C@H](CCC(=O)O)NC(=O)[C@@H](C)NC(=O)[C@@H](N)Cc2ccc(O)cc2)[C@@H](C)O)[C@@H](C)CC)CCCC1)[C@@H](C)CC)C(=O)N[C@@H](CC(=O)O)C(=O)N[C@@H](CCCCN)C(=O)N[C@H](C(=O)N[C@@H](Cc1c[nH]cn1)C(=O)N[C@@H](CCC(N)=O)C(=O)N[C@@H](CCC(N)=O)C(=O)N[C@@H](CC(=O)O)C(=O)N[C@@H](Cc1ccccc1)C(=O)N[C@H](C(=O)N[C@@H](CC(N)=O)C(=O)N[C@@H](Cc1c[nH]c2ccccc12)C(=O)N[C@@H](CC(C)C)C(=O)N[C@@H](CC(C)C)C(=O)N[C@@H](C)C(=O)N[C@@H](CCC(N)=O)C(=O)N[C@@H](CCCCN)C(=O)NCC(=O)N[C@@H](CCCCN)C(=O)N[C@@H](CCCCN)C(=O)N[C@@H](CC(N)=O)C(=O)N[C@@H](CC(=O)O)C(=O)N[C@@H](Cc1c[nH]c2ccccc12)C(=O)N[C@@H](CCCCN)C(=O)N[C@@H](Cc1c[nH]cn1)C(=O)N[C@@H](CC(N)=O)C(=O)N[C@H](C(=O)N[C@H](C(=O)N[C@@H](CCC(N)=O)C(=O)N[C@@H](Cc1c[nH]cn1)C(=O)O)[C@@H](C)O)[C@@H](C)CC)C(C)C)[C@@H](C)CC [Example 119, (D-Ala^2, A5c^11, Nle^14, His^43)hGIP(1-43)-OH] | 167.48 | 35.7 | 15.4 | – |
| Y[Aib]EGTFISDYSIA[Ac6c]DKIHQQDFVNWLLAQKGKKNDWKHNITQ-OH [Example 42, (Aib^2, A6c^14)hGIP(1-42)-OH] | – | 10.6 | 6.2 | 0.07 |
| Y[Aib]EGTFISDY[Aib]IA[Ac6c]DKIHQQDFVNWLLAQKGKKNDWKHNITQ-OH [Example 41, (Aib^2, 11, A6c^14)hGIP(1-42)-OH] | – | 15.9 | 13.3 | 0.73 |
| Y[Aib]EGTF[Ac6c]SDYSIAMDKIHQQDFVNWLLAQKGKKNDWKHNITQ-OH [Example 43, (Aib^2, A6c^7)hGIP(1-42)-OH] | – | 8.8 | 7.7 | 0.3 |
| Y[Aib]EGTF[Ac6c]SDYSIAMDKIHQQDFVNWLLAQKGKKNDWKHNI[Aib]Q-OH [Example 23, (Aib^2, 41, A6c^7)hGIP(1-42)-OH] | – | > 48 | 6.7 | 0.87 |
| Y[Aib]EGTF[Ac6c]SDYSI[Aib][Nle]DKIHQQDFVNWLLAQKGKKNDWKHNITQ-OH [Example 21, (Aib^2, 13, A6c^7, Nle^14)hGIP(1-42)-OH] | – | > 48 | 12.3 | 0.3 |
| Y[dA]EGTFISDY[Ac5c]IAMDKIHQQDFVNWLLAQKGKKNDWKHNI[Ac5c]Q-OH [Example 106, (D-Ala^2, A5c^11, 41)hGIP(1-42)-OH] | 161.73 | > 55 | 9.2 | – |
